Read-outs that look alike come from different tables or passages of the source.
Key:
S1P2 = molecular target: T1, S1P2 (Homo sapiens, UniProt O95136); assay: Specificity over other S1P receptors: S1P2 CRE-bla CHOK1 reporter assay; format: cell-based; settings: S1P2 CRE-bla CHOK1, without Forskolin; read-out: S1P2 agonist value (EC50)
T1 construct: expressed in transfected cells; host or cells: CRE-bla CHOK1
Protocol: (§1) Cells were seeded into 384-well black wall/clear bottom plates at 10^4 cells/well/19.5 μl assay media (DMEM-phenol free, 0.5% charcoal/dextran stripped serum, 2 mM glutamine, 0.1 mM NEAA, 1 mM Na-Pyruvate, 25 mM Hepes) and incubated for 18 hrs at 37° C. in 5% CO2. Dose response curves (10-point) were generated in 10 mM Hepes, 0.1% Pluronic F127, in the presence of Forskolin. Cells were treated with 0.5 μl compound in the presence of 2 μM Forskolin for 4 hrs at 37° C. The FRET-based β-lactamase fluorescent substrate (LiveBLAzer™-FRET B/G Loading Kit CC4-AM; Invitrogen) was prepared according to manufacturer's directions, and incubated with cells for 2 hrs at room temperature. Plates were read at Ex:410/Em:458 and Ex:410/Em:522, and the response ratio determined. Data was analyzed by non-linear regression to determine the EC50 for inhibition of Forskolin induced cAMP.
(§2) To assess compound specificity on other S1P receptors the following cell lines were used: S1P2 CRE-bla CHOK1, S1P3-Gα15 NFAT-bla HEK293T (Invitrogen), S1P4-bla TANGO U2OS (Invitrogen), S1P5-bla TANGO U2OS (Invitrogen). The same assay set up for S1P1 was used but without Forskolin. S1P4 and S1P5 assays were performed in FreeStyle Expression medium (Invitrogen). S1P5 cells were incubated for 48 hrs in prior to treatment with compound.

S1P3 = molecular target: T2, S1P3 (Homo sapiens, UniProt Q99500); assay: Specificity over other S1P receptors: S1P3-Gα15 NFAT-bla HEK293T reporter assay; format: cell-based; settings: without Forskolin, read-out: S1P3 agonist value (EC50)
T2 construct: host or cells: NFAT-bla HEK293T
T2 sequence (Q99500 whole entry): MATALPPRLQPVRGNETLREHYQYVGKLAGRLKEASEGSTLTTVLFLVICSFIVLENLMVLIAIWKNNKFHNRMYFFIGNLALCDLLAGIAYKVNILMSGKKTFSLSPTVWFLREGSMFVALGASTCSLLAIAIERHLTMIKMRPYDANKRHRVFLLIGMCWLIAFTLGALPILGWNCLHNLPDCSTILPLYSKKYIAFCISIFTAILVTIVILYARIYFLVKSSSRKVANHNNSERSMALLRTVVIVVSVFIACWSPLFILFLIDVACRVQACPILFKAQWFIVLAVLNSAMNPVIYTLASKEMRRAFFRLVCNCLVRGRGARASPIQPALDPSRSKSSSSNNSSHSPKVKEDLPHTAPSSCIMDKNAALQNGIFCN
Protocol: as §1, §2

S1P4 = molecular target: T3, S1P4 (Homo sapiens, UniProt O95977); assay: Specificity over other S1P receptors: S1P4-bla TANGO U2OS assay; format: cell-based; settings: read-out: S1P4 agonist value (EC50)
T3 construct: Tango fusion (own knowledge: protease cleavage site plus GAL4-VP16 transcription factor at the receptor's C-terminus); host or cells: U2OS (Tango -bla)
T3 sequence (O95977 1-384): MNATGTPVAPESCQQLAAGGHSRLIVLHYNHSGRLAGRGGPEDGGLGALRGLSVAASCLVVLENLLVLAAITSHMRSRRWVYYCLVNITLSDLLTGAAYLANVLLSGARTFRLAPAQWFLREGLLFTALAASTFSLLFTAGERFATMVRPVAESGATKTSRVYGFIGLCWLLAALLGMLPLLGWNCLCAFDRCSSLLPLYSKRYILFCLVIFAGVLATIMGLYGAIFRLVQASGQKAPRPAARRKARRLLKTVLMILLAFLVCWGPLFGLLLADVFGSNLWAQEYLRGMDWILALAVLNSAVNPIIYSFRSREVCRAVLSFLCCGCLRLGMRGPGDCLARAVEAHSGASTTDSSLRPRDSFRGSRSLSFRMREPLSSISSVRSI
Protocol: as §1, §2

S1P5 = molecular target: T4, S1P5 (Homo sapiens, UniProt Q9H228); assay: Specificity over other S1P receptors: S1P5-bla TANGO U2OS assay; format: cell-based; settings: read-out: S1P5 agonist value (EC50)
T4 construct: Tango fusion (own knowledge: protease cleavage site plus GAL4-VP16 transcription factor at the receptor's C-terminus); host or cells: U2OS (Tango -bla)
T4 sequence (Q9H228 whole entry, the tested form may be a part): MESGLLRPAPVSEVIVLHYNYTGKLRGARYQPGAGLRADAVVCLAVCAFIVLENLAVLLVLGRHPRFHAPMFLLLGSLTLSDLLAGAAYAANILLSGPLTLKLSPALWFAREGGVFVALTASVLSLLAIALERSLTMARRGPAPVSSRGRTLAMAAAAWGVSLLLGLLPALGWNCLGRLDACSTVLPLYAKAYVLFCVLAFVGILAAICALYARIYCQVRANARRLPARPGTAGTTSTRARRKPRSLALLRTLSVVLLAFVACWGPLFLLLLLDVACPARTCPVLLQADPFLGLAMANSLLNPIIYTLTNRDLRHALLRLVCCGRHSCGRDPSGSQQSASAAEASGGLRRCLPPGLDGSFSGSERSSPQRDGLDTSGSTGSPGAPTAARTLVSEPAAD
Protocol: as §1, §2

[1] = test system: CD4 or CD8 positive T cells; assay: Lymphopenia in mice; format: in vivo; settings: female C57BL6 mice, 1 mg/kg oral gavage, area under the effect curve over 24 h
Protocol: In mice: Female C57BL6 mice (Simonsen Laboratories, Gilroy Calif.) were housed in an ALAAC accredited facility and the research was approved by the facilities Institutional Animal Care and Use Committee (IACUC). The animals were acclimated to the laboratory for at least 5 days prior to initiation of experiments. Mice (n=3/compound/time-point) were dosed by oral gavage with 1 mg/kg compound formulated in a vehicle consisting of 5% DMSO/5% Tween 20 and 90% 0.1N HCl. Control mice were dosed PO with the vehicle. Terminal whole blood samples were collected from isoflurane anesthetized mice by cardiac puncture into EDTA. Whole blood was incubated with rat anti-mouse CD16/CD32 (Mouse BD Fc Block, #553141), PE-Rat anti-mouse CD45R/B220 (BD #553089), APC-Cy7-Rat anti-mouse CD8a (BD #557654), and Alexa Fluor647-Rat anti-mouse CD4 (BD #557681) for 30 min on ice. Red blood cells were lysed using BD Pharm Lyse Lysing buffer (#555899) and white blood cells were analyzed by FACS. Lymphopenia was expressed as the % of white blood cells that were CD4 or CD8 positive T cells. The overall lymphopenia response over 24 h was estimated by calculating the area under the effect curve (AUEC) using the linear trapezoidal rule.

[2] = Evaluation of therapeutic index in rats: 5 or 14 day toxicology study, lung to body weight ratio; format: in vivo, Sprague-Dawley rat; settings: for Dose Resulting in 10% increase in lung weight: rats, oral, 5 or 14 consecutive days, interpolated from dose versus lung to body weight
Protocol: All studies were conducted in non-fasted male and female Sprague-Dawely rats (Simonsen Laboratories). Rats were housed in an AAALAC accredited facility and the research was approved by the facilities Institutional Animal Care and Use Committee (IACUC). The animals were acclimated to the laboratory for at least 5 days prior to initiation of experiments.
(§3) The compounds listed in Table 6 were formulated as suspensions in a vehicle consisting of 0.5% carboxymethyl cellulose (Acros Organics) in purified water (pH adjusted to ˜2.2 with hydrochloric acid). The same formulation was used in the rat lymphopenia and toxicology studies described below. The concentration of each compound in suspension was verified to be within ±10% of the target concentration by HPLC-UV.
In the toxicology studies, three male and three female rats per group were assigned to dosing groups using body weight based randomization. A control group in each study received vehicle. All animals were dosed orally by gavage on 5 or 14-consecutive days at a dose volume of 5 mL/kg/day. The animals were observed daily for any manifestations of adverse effect. Twenty-four hours after the final study dose, the rats were anesthetized with isoflurane and a terminal blood sample was taken by intra-cardiac puncture for hematology and clinical chemistry evaluation (IDEXX Laboratories, Sacramento, Calif.). The lungs with trachea were collected, weighed, and then prepared for histology by perfusion with 10% neutral buffered formalin via the trachea. The internally fixed lungs were then preserved in 10% neutral buffered formalin and submitted for histological examination (IDEXX).
The dose of each compound resulting in a 10% increase in the lung to terminal body weight ratio was estimated for each compound by linear interpolation. The therapeutic index was estimated as the ratio of the dose producing 10% lung weight increase to the dose producing 50% T-Cell depletion.
(§4) The dose producing a 10% increase in lung to body weight ratio was interpolated from a plot of dose versus lung to body weight. The lymphopenia response was measured 24 hours following the final dose of a 3-5 day multiple dose regimen.

peripheral T-cell counts = assay: Lymphopenia in rats, 3-5 day multiple dose regimen; format: in vivo, rat; settings: female rats, oral, 24 h after final dose of a 3-5 day multiple dose regimen
Protocol: In rats: Female rats (Simonsen Laboratories, Gilroy Calif.) were housed in an ALAAC accredited facility and the research was approved by the facilities Institutional Animal Care and Use Committee (IACUC). The animals were acclimated to the laboratory for at least 5 days prior to initiation of experiments. Rats (n=3/compound/time-point) were dosed by oral gavage with 1 mg/kg compound formulated in a vehicle consisting of 5% DMS0/5% Tween 20 and 90% 0.1N HCL. Control rats were dosed PO with the vehicle. Whole blood was collected from isoflurane anesthetized rats via the retro-orbital sinus and terminal samples were collected by cardiac puncture into EDTA. Whole blood was incubated with mouse anti-rat CD32 (BD #550271), PE-mouse anti-rat CD45R/B220 (BD #554881), PECy5-mouse anti-rat CD4 (BD #554839), and APC-mouse anti-rat CD8a (eBioscience #17-0084) for 30 minutes on ice. Red blood cells were lysed using BD Pharm Lyse Lysing buffer (#555899) and white blood cells were analyzed with a BD FACSArray. Lymphopenia was expressed as the % of white blood cells that were CD4 or CD8 positive T cells. The overall lymphopenia response over 24 h was estimated by calculating the area under the effect curve (AUEC) using the linear trapezoidal rule.
as §3
Prior to the conduct of toxicology studies, the effect of three to five daily doses of each compound on peripheral T-cell counts of female rats was determined (see lymphopenia measurements in rats above). In these lymphopenia studies, blood samples were collected onto EDTA at intervals after the final study dose. The collection times were not identical for each study, however, all studies included a sample collected 24 hours after the final dose. The lymphopenia data was used as a biomarker to select equally pharmacologically active doses for the subsequent toxicology study. […] The high dose in the toxicology study represented a ≧20-fold increment over the low dose.
as §4

S1P1/EDG1 = S1P1/EDG1 (Homo sapiens, UniProt P21453); assay: S1P1 CRE-bla CHOK1 reporter assay, inhibition of Forskolin induced cAMP; format: cell-based
Chain of S1P1/EDG1 (P21453 whole entry): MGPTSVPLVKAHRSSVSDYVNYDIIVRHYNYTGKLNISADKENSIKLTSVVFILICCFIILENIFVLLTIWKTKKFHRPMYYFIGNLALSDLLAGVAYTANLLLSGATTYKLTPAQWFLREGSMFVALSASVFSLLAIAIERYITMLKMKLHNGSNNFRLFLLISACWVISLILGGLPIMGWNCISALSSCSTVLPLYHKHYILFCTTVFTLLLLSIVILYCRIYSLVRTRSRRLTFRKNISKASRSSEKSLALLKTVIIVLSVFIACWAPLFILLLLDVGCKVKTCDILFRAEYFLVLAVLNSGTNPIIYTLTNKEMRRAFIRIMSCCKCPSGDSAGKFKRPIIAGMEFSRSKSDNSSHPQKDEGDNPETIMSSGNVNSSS
Summary of the method: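 Read-out is a FRET β-lactamase substrate (2 h, room temperature) after 4 h, 37 °C compound treatment under 2 μM Forskolin in stable S1P1-transfected CRE-bla CHO-K1 cells. Ten-point curves; non-linear regression gives EC50 for inhibition of Forskolin-stimulated cAMP.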

T1 sequence (O95136 whole entry, species assumed): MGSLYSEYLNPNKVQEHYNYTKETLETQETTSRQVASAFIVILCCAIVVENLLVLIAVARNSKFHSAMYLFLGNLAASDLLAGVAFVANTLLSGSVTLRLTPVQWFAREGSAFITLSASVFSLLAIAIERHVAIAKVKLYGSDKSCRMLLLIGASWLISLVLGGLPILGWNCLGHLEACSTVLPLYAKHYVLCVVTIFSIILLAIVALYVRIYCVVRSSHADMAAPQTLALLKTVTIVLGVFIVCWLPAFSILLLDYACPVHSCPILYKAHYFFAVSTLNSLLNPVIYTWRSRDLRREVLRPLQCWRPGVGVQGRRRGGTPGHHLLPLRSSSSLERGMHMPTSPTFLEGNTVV

SMILES	EC50 (S1P2) [µM]	EC50 (S1P3) [µM]	EC50 (S1P4) [µM]	EC50 (S1P5) [µM]	Mouse Lymphopenia (AUEC) [1]	Dose Resulting in 10% increase in lung weight [2] [mg/kg]	TI 14 days ([2]; therapeutic index: dose producing 10% lung weight increase / dose producing 50% T-cell depletion, 14 day toxicology study in rats)	Dose Producing 50% lymphopenia (peripheral T-cell counts) [mg/kg]	EC50 (S1P1/EDG1; S1P1 CRE-bla CHOK1, with Forskolin, read-out: S1P1 agonist value (EC50)) [nM]	EC50 (S1P1/EDG1; agonist activity range, S1P1 CRE-bla CHOK1, 2 μM Forskolin, read-out: S1P1 ACTIVITY) [nM]	TI 5 days ([2]; therapeutic index: dose producing 10% lung weight increase / dose producing 50% T-cell depletion, 5 day toxicology study in rats)
CC(C)Oc1ccc(-c2nc(-c3cccc4c3CC[C@@H]4NCCO)no2)cc1C#N [Compound 86, (S)-5-(3-(1-(2-hydroxyethylamino)-2,3-dihydro-1H-inden-4-yl)-1,2,4-oxadiazol-5-yl)-2-isopropoxy benzonitrile]	9.56	9.94	4.19	0.0552	1342	2.7	18	0.15			
CC(C)Oc1ccc(-c2nc(-c3cccc4c3CC[C@@H]4NC(=O)N3CC(O)C3)no2)cc1C#N [Compound 235]	> 10	> 10	> 10	0.0398		11.3		2.00	0.1	0.05 to 0.5	6

From patent publication US9388147B2 (Receptos, Inc., priority 2009, dated 2016)
